In ChEMBL document CHEMBL1144226, “Design and synthesis of 2-amino-isoxazolopyridines as Polo-like kinase inhibitors” (Bioorg Med Chem Lett, 2008):
The source made the active and inactive calls. The rule behind the calls is not given here.

How the values were obtained:
[1] = target: Serine/threonine-protein kinase PLK1 (Homo sapiens, UniProt P53350)
cells = details: Homo sapiens, HCT-116
[2] = target: Serine/threonine-protein kinase PLK2 (Homo sapiens, UniProt Q9NYY3)
[3] = target: Serine/threonine-protein kinase PLK3 (Homo sapiens, UniProt Q9H4B4)
HCT-116 = assay: Effect on morphology in human HCT 116 cells assessed as monopolar spindle phenotype; format: functional, cell-based

Chain of Serine/threonine-protein kinase PLK1 (P53350 whole entry): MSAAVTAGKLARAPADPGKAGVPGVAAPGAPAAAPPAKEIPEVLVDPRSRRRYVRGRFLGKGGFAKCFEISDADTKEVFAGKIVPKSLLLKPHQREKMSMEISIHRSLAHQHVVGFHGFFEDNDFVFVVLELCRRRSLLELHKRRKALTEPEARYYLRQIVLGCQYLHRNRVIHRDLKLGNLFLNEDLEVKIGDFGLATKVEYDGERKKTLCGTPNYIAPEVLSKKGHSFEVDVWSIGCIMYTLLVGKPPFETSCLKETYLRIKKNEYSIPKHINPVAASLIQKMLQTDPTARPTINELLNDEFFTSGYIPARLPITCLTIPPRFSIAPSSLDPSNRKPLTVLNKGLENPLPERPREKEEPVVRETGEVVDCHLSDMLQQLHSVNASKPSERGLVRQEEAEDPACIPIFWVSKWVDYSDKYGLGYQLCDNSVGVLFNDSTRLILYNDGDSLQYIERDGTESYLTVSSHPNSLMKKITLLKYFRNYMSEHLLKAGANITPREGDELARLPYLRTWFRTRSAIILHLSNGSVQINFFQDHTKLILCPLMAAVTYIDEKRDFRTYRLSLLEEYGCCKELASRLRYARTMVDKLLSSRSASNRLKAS
Chain of Serine/threonine-protein kinase PLK2 (Q9NYY3 whole entry): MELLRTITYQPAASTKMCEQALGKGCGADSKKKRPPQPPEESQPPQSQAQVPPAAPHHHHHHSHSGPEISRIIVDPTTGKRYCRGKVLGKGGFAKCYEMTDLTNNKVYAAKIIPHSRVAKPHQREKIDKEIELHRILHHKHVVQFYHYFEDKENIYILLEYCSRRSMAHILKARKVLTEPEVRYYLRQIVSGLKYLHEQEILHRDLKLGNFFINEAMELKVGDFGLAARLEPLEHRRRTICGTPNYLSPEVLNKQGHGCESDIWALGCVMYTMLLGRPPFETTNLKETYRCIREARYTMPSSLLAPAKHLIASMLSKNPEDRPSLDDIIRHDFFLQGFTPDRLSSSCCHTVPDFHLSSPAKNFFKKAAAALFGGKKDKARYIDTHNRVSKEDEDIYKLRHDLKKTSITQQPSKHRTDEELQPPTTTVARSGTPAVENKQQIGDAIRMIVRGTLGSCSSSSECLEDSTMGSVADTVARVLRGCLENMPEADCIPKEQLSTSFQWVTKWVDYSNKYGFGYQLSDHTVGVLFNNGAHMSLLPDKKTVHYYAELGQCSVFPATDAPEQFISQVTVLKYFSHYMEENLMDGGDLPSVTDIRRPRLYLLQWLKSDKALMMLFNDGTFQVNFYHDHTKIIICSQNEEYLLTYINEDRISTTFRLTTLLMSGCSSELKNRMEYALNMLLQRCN
Chain of Serine/threonine-protein kinase PLK3 (Q9H4B4 whole entry): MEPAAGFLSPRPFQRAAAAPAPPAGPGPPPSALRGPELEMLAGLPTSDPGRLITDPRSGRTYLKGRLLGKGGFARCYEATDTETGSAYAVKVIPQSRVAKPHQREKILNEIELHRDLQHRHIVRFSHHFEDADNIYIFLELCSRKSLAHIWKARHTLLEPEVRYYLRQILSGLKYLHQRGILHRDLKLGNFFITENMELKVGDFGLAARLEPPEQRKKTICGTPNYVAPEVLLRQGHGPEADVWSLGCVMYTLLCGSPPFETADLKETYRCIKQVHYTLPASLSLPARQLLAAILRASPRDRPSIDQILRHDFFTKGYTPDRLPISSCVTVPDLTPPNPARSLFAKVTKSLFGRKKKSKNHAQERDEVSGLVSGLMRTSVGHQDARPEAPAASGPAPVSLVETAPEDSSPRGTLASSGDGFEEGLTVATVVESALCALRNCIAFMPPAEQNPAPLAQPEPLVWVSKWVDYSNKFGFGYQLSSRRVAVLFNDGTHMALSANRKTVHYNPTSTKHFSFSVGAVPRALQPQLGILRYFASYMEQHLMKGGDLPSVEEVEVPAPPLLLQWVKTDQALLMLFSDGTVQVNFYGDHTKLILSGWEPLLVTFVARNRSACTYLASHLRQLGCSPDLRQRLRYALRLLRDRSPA

Compound | IC50 (cells) [µM] | further results
C[C@H](Nc1cc2c(Cc3ccccc3)noc2cn1)c1ccccc1 | – | IC50 [1]: > 20000 nM
Cc1cc(C)cc(-c2noc3cnc(N[C@@H](C)c4ccccc4)cc23)c1 | > 20 | –
C[C@H](Nc1cc2c(-c3ccc4c(c3)OCO4)noc2cn1)c1ccccc1 | 7.32 | IC50 [1]: 214 nM; IC50 [2]: 4 nM; IC50 [3]: 24 nM
COc1ccc(-c2noc3cnc(N[C@@H](C)c4ccccc4)cc23)cc1OC | > 20 | –
C[C@H](Nc1cc2c(-c3cc(Cl)cc(CCCO)c3)noc2cn1)c1ccccc1 | 10.2 | –
C[C@H](Nc1cc2c(-c3cc(Cl)cc(CCC(N)=O)c3)noc2cn1)c1ccccc1 | 8.35 | Activity (HCT-116): Active

Second part, led by results:

IC50 (cells) [µM] | Compound | further results
> 20 | C[C@H](Nc1cc2c(-c3ccccc3)noc2cn1)c1ccccc1 | –
> 20 | Cc1ccc(-c2noc3cnc(N[C@@H](C)c4ccccc4)cc23)cc1 | –
6.69 | Cc1cccc(-c2noc3cnc(N[C@@H](C)c4ccccc4)cc23)c1 | –
> 20 | C[C@H](Nc1cc2c(-c3cccc(Cl)c3)noc2cn1)c1ccccc1 | –
